We go through eleven molecules from patent US10517862B2, “Fused heterocyclic compound derivative and application thereof” (NHWA PHARMA. CORPORATION, priority 2015, dated 2019).

What is called inhibition is how much of the control response was suppressed.

The test system of one assay is D2 receptor. In words: D2 receptor binding assay (3H-Spiperone, rat striatum membrane). To be noted: for D2 Inhibition rate (%): test compound final concentration 10^−5 M, 3H-Spiperone, rat striatum membrane; for affinity with D2 (in words): summary of in vitro assay. On the procedure:
Preparation of D2 Membrane
Rats were decapitated on ice. […] The weight of the homogenized tubes were adjusted using a balance, and centrifugation was conducted. […] Centrifugation was conducted.
(§1) Materials for the Receptor Binding Assay

The target in another assay is T1, 5HT1A receptor (Rattus norvegicus, UniProt P19327).
T1 construct: Rats were decapitated on ice; from tissue; host or cells: rat brain striatum
T1 sequence (P19327 1-422): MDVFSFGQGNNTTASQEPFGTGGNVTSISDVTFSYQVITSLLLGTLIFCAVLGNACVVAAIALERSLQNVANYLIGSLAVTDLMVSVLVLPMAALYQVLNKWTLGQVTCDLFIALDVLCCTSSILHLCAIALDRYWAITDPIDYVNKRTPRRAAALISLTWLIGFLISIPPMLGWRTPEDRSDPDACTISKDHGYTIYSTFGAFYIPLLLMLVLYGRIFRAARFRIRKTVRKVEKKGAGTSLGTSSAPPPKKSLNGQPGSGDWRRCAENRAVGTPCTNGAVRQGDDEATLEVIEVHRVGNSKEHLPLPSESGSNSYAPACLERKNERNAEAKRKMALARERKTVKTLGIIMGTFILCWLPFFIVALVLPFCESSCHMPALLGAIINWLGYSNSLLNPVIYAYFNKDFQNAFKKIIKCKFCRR
The assay can be described thus: 5HT1A receptor binding assay (3H-8-OH-DPAT, rat striatum membrane). To be noted: for inhibition at 10 µM: test compound final concentration 10^−5 M, 3H-8-OH-DPAT, rat striatum membrane, read-out: 5HT1A Inhibition rate (%); for affinity with 5HT1A (in words): summary of in vitro assay. How it is done:
Preparation of 5HT1A Membrane
Rats were decapitated on ice. […] Incubation at 37° C. was conducted for 10 min. […] Centrifugation was conducted at 12000 rpm, 4° C. for 20 min. […] Centrifugation was conducted and repeated 3 times.
as §1

The target in another assay is T2, D3 receptor (Homo sapiens, UniProt P35462).
T2 construct: expressed in transfected cells; host or cells: HEK-293
T2 sequence (P35462 whole entry): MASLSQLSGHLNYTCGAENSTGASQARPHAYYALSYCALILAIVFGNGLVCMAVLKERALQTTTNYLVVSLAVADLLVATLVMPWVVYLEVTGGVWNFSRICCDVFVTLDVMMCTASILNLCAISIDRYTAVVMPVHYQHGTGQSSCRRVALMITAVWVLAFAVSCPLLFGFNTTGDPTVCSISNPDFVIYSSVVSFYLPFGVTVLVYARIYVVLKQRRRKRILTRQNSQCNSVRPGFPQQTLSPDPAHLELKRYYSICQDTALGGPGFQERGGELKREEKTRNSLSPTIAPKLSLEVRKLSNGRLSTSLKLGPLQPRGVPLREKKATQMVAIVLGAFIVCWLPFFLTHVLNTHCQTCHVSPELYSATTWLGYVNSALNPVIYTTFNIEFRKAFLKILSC
In words: D3 receptor assay ([3H]-Spiperone, HEK-293 cells). It is filed as binding. To be noted: for inhibition at 10 µM: test compound final concentration 10 μmol/L, [3H]-Spiperone, HEK-293 cells, read-out: D3 Inhibition rate (%); for affinity with D3 (in words): summary of in vitro assay. On the procedure: Then the cells were centrifuged at 1000 rpm for 5 min, the supernatant was discarded, and the cell pellets was collected and stored in a −20° C. fridge for reservation. It was re-suspended with Tris-Cl (pH 7.4) when the assay was performed.
Tris was divided into aliquots by Genetimes Technology Inc.
Competitive binding test for receptors: 20 μl of each of the test compounds and 20 μl of the radioactive ligand together with 160 μl of the receptor proteins were added into the reaction tubes, and the final concentrations of the test compound and the positive drug were all 10 μmol/L. After 50 min of incubation in 30° C. water bath, the tubes were immediately moved to ice bath to terminate the reactions. GF/C glass fiber filter papers were used for rapid sucking filtration on a Millipore cell sample collector, 3 ml of elution buffer (50 mM Tris-HCl, PH 7.4) was applied for 3 times, and microwave was applied for 4-5 min for drying. The filter paper was moved into 0.5 ml centrifuge tube, and 500 μl of liposoluble scintillation cocktail was added. The tubes were allowed to stand still for over 30 min in dark, and the intensities of radioactivity were measured by a counter.

In a further assay the target is T3, 5HT2C receptor (Rattus norvegicus, UniProt P08909).
T3 construct: from tissue; host or cells: rat brain striatum
T3 sequence (P08909 33-460): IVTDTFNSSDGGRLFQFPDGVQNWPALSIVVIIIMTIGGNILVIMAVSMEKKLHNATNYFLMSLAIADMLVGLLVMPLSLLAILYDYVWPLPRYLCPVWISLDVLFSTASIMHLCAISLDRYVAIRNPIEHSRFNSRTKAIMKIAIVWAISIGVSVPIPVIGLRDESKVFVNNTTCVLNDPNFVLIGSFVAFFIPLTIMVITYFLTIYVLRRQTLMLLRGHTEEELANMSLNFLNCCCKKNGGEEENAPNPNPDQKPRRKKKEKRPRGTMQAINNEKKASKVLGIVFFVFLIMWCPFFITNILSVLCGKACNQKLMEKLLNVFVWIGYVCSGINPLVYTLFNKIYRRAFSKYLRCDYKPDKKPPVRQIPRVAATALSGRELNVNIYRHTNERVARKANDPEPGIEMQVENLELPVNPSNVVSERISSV
In words: 5HT2C receptor binding assay ([3H]-mesulergine, rat striatum membrane). To be noted: for inhibition at 10 µM: test compound final concentration 10^−5 M, [3H]-mesulergine, rat striatum membrane, read-out: 5HT2C Inhibition rate (%); for affinity with 5HT2C (in words): summary of in vitro assay. How it is done: Preparation of 5HT2C Membrane
Rats were decapitated on ice. […] Centrifugation was conducted.
as §1

Assay [1] deals with α1 norepinephrine receptor. The assay can be described thus: α1 norepinephrine receptor binding assay (3H-prazosin, rat cortex membrane). To be noted: for α1 Inhibition rate (%): test compound final concentration 10^−5 M, 3H-prazosin, rat cortex membrane; for affinity with α1 (in words): summary of in vitro assay. The source says: Preparation of Receptor Membrane of Norepinephrine
α1 Norepinephrine Receptor Binding Assay

For a further assay, the target named is 5HT2A receptor (Rattus norvegicus, UniProt P14842). The assay can be described thus: 5HT2A receptor binding assay ([3H]-Ketanserin, rat striatum membrane). To be noted: for inhibition at 10 µM: read-out: 5HT2A Inhibition rate (%); for affinity with 5HT2A (in words): summary of in vitro assay.
Chain of 5HT2A receptor (P14842 whole entry): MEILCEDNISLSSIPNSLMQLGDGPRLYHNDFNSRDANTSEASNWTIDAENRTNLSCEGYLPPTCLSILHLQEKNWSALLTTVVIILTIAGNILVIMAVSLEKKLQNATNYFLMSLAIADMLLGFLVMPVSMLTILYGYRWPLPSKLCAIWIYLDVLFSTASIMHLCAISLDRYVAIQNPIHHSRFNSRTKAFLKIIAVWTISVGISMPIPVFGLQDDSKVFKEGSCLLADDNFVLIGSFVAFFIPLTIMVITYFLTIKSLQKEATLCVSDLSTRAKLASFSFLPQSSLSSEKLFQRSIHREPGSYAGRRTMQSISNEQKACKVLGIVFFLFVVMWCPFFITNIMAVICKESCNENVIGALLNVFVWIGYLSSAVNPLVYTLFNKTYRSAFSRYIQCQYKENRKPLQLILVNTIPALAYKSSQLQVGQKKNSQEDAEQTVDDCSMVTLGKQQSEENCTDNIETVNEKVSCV
The next assay concerns the target Histamine H1 receptor (Rattus norvegicus, UniProt P31390). The assay can be described thus: Histamine H1 receptor binding assay (3H-pyrilamine, rat cerebellum membrane). To be noted: for inhibition at 10 µM: read-out: H1 Inhibition rate (%); for affinity with H1 (in words): summary of in vitro assay.

Chain of Histamine H1 receptor (P31390 whole entry): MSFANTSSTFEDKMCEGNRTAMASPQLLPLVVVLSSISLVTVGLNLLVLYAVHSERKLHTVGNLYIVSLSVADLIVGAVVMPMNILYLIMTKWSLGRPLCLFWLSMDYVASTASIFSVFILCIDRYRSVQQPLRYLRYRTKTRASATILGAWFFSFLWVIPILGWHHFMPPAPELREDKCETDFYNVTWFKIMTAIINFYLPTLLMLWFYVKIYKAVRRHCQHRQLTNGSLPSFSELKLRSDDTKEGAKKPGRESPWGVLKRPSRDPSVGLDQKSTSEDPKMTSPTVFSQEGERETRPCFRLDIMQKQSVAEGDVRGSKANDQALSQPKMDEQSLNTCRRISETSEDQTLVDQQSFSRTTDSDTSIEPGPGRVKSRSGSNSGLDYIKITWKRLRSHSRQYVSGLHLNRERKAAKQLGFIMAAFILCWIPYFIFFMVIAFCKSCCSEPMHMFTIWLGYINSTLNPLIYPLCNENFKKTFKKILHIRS
Experimental for Histamine H1 receptor: The supernatant was discarded to give pellets, and homogenate F was added again to the pellets for washing. Centrifugation was conducted and repeated 3 times.
(2) 100 μL of membrane preparation was added into each reaction tube.

Turning to `O=C(CN1CCC(c2noc3cc(F)ccc23)CC1)c1cc2c3c(c1)CCC(=O)N3CCC2` [Compound 1], the “D2 Inhibition rate (%)” value in the assay on D2 receptor was 45.89%. The inhibition at 10 µM on 5HT1A receptor came to 54.6%; on D3 receptor, 60.9%; at 5HT2C receptor, 84.6%; at 5HT2A receptor it was 84.9%; on Histamine H1 receptor it was 84.9%. Moreover, the “α1 Inhibition rate (%)” value in assay [1] was determined as 68.75%.

Regarding `O=C1CCc2cc(C(O)CCN3CCC(c4noc5cc(F)ccc45)CC3)cc3c2N1CCC3` (stereo not drawn) [Compound 3], in the assay with D2 receptor, the “D2 Inhibition rate (%)” value is 97.67%. Moreover, the inhibition at 10 µM at 5HT1A receptor was determined as 91.6%; at D3 receptor it was 93.9%; on 5HT2C receptor, 61.6%; on 5HT2A receptor, 92.5%; at Histamine H1 receptor, 42.5%. In addition, the “α1 Inhibition rate (%)” value in assay [1] is recorded as 51.42%.

On to `O=C1CCc2cc(CCCN3CCC(c4noc5cc(F)ccc45)CC3)cc3c2N1CCC3` [Compound 4], for which the “D2 Inhibition rate (%)” value in the assay with D2 receptor is recorded as 94.22%. For the same molecule, the inhibition at 10 µM on 5HT1A receptor turned out to be 88%; at D3 receptor, 92.5%; at 5HT2C receptor, 60%; at 5HT2A receptor, 94%; at Histamine H1 receptor, 44%. In assay [1], the “α1 Inhibition rate (%)” value stood at 60.91%.

Regarding `O=C1CCc2cc(C(O)CCCN3CCC(c4noc5cc(F)ccc45)CC3)cc3c2N1CCC3` (stereo not drawn) [Compound 6], in the assay with D2 receptor, the “affinity with D2 (in words)” value is listed as “high affinities” and the “D2 Inhibition rate (%)” value is listed as 98.48%. Further, on 5HT1A receptor, the “affinity with 5HT1A (in words)” value was “high affinities” and the inhibition at 10 µM stood at 99.6%. Further, on D3 receptor, the “affinity with D3 (in words)” value is given as “high affinities” and the inhibition at 10 µM was determined as 98.5%. Besides, on 5HT2C receptor, the “affinity with 5HT2C (in words)” value was “low affinities” and the inhibition at 10 µM turned out to be 61.6%. For the same molecule, in assay [1], the “affinity with α1 (in words)” value was “low affinities” and the “α1 Inhibition rate (%)” value came out at 60.91%. In addition, at 5HT2A receptor, the inhibition at 10 µM was 99.1% and the “affinity with 5HT2A (in words)” value was “high affinities”. Further, on Histamine H1 receptor, the inhibition at 10 µM stood at 49.1% and the “affinity with H1 (in words)” value is on record as “low affinities”.

As for `O=C(CCCCN1CCC(c2noc3cc(F)ccc23)CC1)c1cc2c3c(c1)CCC(=O)N3CCC2` [Compound 8], the “D2 Inhibition rate (%)” value in the assay with D2 receptor came to 90.17%. For the same molecule, the inhibition at 10 µM on 5HT1A receptor turned out to be 89.5%; at D3 receptor, 72.4%; on 5HT2C receptor, 59.5%; at 5HT2A receptor it was 93%; at Histamine H1 receptor, 45.5%. Further, in assay [1], the “α1 Inhibition rate (%)” value stood at 41.19%.

With `CC1CC(=O)N2CCCc3cc(C(=O)CCCN4CCC(c5noc6cc(F)ccc56)CC4)cc1c32` (stereo not drawn) [Compound 9], the “D2 Inhibition rate (%)” value in the assay with D2 receptor turned out to be 91.76%. Moreover, the inhibition at 10 µM on 5HT1A receptor stood at 84%; on D3 receptor, 86%; on 5HT2C receptor, 54%; at 5HT2A receptor it was 90.2%; at Histamine H1 receptor it was 46%. Also, the “α1 Inhibition rate (%)” value in assay [1] is given as 66.62%.

On to `CC1CC(=O)N2CCCc3cc(CCCCN4CCC(c5noc6cc(F)ccc56)CC4)cc1c32` (stereo not drawn) [Compound 10], for which the “D2 Inhibition rate (%)” value with D2 receptor was determined as 85.88%. Moreover, the inhibition at 10 µM was 82.9% on 5HT1A receptor; 80.2% on D3 receptor; 55.9% at 5HT2C receptor; 83.5% at 5HT2A receptor; 43.9% at Histamine H1 receptor. In addition, the “α1 Inhibition rate (%)” value in assay [1] was 46.48%.

Turning to `O=C(CN1CCC(c2noc3cc(F)ccc23)CC1)c1cc2c3c(c1)CCN3C(=O)CC2` [Compound 11], the “D2 Inhibition rate (%)” value in the assay on D2 receptor is on record as 55.89%. In addition, the inhibition at 10 µM on 5HT1A receptor is 58.6%; at D3 receptor, 83.5%; on 5HT2C receptor, 84.6%; at 5HT2A receptor, 74.9%; on Histamine H1 receptor, 84.9%. Also, the “α1 Inhibition rate (%)” value in assay [1] stood at 52.42%.

For the molecule `O=C1CCc2cc(C(O)CCN3CCC(c4noc5cc(F)ccc45)CC3)cc3c2N1CC3` (stereo not drawn) [Compound 13], in the assay with D2 receptor, the “affinity with D2 (in words)” value is “high affinities” and the “D2 Inhibition rate (%)” value is on record as 96.83%. On 5HT1A receptor, the “affinity with 5HT1A (in words)” value is “high affinities” and the inhibition at 10 µM was determined as 93.6%. Moreover, at D3 receptor, the “affinity with D3 (in words)” value was “high affinities” and the inhibition at 10 µM is 94.4%. In addition, on 5HT2C receptor, the “affinity with 5HT2C (in words)” value is given as “low affinities” and the inhibition at 10 µM was determined as 53.6%. In addition, in assay [1], the “affinity with α1 (in words)” value is recorded as “low affinities” and the “α1 Inhibition rate (%)” value was 53.75%. Further, at 5HT2A receptor, the inhibition at 10 µM amounted to 96.9% and the “affinity with 5HT2A (in words)” value is “high affinities”. Also, on Histamine H1 receptor, the inhibition at 10 µM amounted to 46.9% and the “affinity with H1 (in words)” value is given as “low affinities”.

With `O=C1CCc2cc(CCCN3CCC(c4noc5cc(F)ccc45)CC3)cc3c2N1CC3` [Compound 14], in the assay with D2 receptor, the “affinity with D2 (in words)” value was “high affinities” and the “D2 Inhibition rate (%)” value turned out to be 94.65%. At 5HT1A receptor, the “affinity with 5HT1A (in words)” value is listed as “high affinities” and the inhibition at 10 µM turned out to be 87%. Besides, at D3 receptor, the “affinity with D3 (in words)” value was “high affinities” and the inhibition at 10 µM worked out at 96.9%. In addition, at 5HT2C receptor, the “affinity with 5HT2C (in words)” value is “low affinities” and the inhibition at 10 µM worked out at 57%. In assay [1], the “affinity with α1 (in words)” value is recorded as “low affinities” and the “α1 Inhibition rate (%)” value stood at 50.91%. On 5HT2A receptor, the inhibition at 10 µM came out at 93.9% and the “affinity with 5HT2A (in words)” value is given as “high affinities”. Besides, at Histamine H1 receptor, the inhibition at 10 µM came to 43.9% and the “affinity with H1 (in words)” value is listed as “low affinities”.

Take `O=C1CCc2cc(C(O)CCCN3CCC(c4noc5cc(F)ccc45)CC3)cc3c2N1CC3` (stereo not drawn) [Compound 16]: in the assay with D2 receptor, the “affinity with D2 (in words)” value is listed as “high affinities” and the “D2 Inhibition rate (%)” value is on record as 98.34%. Besides, at 5HT1A receptor, the “affinity with 5HT1A (in words)” value is “high affinities” and the inhibition at 10 µM was found to be 99.4%. Also, on D3 receptor, the “affinity with D3 (in words)” value is given as “high affinities” and the inhibition at 10 µM was 98.3%. For the same molecule, at 5HT2C receptor, the “affinity with 5HT2C (in words)” value is given as “low affinities” and the inhibition at 10 µM stood at 55.4%. In assay [1], the “affinity with α1 (in words)” value is “low affinities” and the “α1 Inhibition rate (%)” value was 51.19%. Also, on 5HT2A receptor, the inhibition at 10 µM is 98.8% and the “affinity with 5HT2A (in words)” value is recorded as “high affinities”. Also, at Histamine H1 receptor, the inhibition at 10 µM was 38.8% and the “affinity with H1 (in words)” value was “low affinities”.
